Measured values as given in US6248747A, “5-(heterocyclic alkyl)-6-aryl-dihydropyrimidines” (Synaptic Pharmaceutical Corporation, priority 1999, dated 2001).
Like-named read-outs stand apart in the source and are kept apart here.

Experiments:
[1] = molecular target: T1, cloned human α1a receptor (Homo sapiens, UniProt P25100); test: Radioligand binding affinity at cloned human α1a receptor ([3H]prazosin); settings: LM(tk-) cell membranes, SEM and n
T1 construct: The entire coding region of α1A (1719 bp); expressed in transfected cells; host or cells: LM(tk-) cells, membranes
T1 sequence (P25100 1-572): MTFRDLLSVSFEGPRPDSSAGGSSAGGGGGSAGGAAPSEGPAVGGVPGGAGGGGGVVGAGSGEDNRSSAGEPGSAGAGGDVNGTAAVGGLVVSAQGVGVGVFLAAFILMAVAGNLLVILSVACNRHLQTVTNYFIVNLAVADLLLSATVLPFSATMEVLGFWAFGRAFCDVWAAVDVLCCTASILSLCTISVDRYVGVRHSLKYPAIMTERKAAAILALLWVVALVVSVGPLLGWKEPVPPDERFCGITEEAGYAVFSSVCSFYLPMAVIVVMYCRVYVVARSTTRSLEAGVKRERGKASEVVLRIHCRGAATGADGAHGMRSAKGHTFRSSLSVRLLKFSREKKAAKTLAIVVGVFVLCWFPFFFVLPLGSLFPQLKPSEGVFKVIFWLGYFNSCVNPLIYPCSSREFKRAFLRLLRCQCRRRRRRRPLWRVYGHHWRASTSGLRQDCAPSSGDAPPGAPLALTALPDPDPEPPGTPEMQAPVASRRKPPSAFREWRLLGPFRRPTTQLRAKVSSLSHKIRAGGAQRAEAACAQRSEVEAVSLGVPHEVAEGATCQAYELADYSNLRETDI
Description: (§1) The protocols for these experiments are given below.
(§2) These cell lines were prepared by transfecting the cloned cDNA or cloned genomic DNA or constructs containing both genomic DNA and cDNA encoding the human α-adrenergic receptors as follows:
(§3) Radioligand Binding Assays: Transfected cells from culture flasks were scraped into 5 ml of 5 mM Tris-HCl, 5 mM EDTA, pH 7.5, and lysed by sonication. The cell lysates were centrifuged at 1000 rpm for 5 min at 4° C., and the supernatant was centrifuged at 30,000×g for 20 min at 4° C. The pellet was suspended in 50 mM Tris-HCl, 1 mM MgCl2, and 0.1% ascorbic acid at pH 7.5. […] Nonspecific binding was determined in the presence of 10 μM phentolamine. The reaction was stopped by filtration through GF/B filters using a cell harvester.

[2] = molecular target: T2, cloned human α1b receptor (Homo sapiens, UniProt P35368); test: Radioligand binding affinity at cloned human α1b receptor ([3H]prazosin); settings: LM(tk-) cell membranes, SEM and n
T2 construct: The entire coding region of α1B (1563 bp); expressed in transfected cells; host or cells: LM(tk-) cells, membranes; vector pCEXV-3
T2 sequence (P35368 1-520): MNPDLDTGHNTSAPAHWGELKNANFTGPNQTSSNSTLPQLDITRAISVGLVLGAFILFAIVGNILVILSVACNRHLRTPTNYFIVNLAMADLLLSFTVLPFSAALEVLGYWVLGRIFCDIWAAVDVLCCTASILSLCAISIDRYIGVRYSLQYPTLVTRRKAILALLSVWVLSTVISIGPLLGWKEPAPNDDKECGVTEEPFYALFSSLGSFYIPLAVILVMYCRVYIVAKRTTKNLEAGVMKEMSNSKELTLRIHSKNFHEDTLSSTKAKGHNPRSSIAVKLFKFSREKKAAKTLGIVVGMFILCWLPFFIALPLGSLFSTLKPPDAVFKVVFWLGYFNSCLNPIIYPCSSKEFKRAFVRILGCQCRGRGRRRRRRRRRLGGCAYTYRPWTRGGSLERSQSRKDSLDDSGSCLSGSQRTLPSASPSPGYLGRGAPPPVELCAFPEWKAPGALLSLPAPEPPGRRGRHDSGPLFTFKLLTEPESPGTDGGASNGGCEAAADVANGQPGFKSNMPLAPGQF
Description: as §1, §2
The construct involved ligating the full-length containing EcoRI brainstem cDNA fragment from λ ZapII into the expression vector. Stable cell lines were selected as described above.
as §3

[3] = molecular target: T3, cloned human α1c receptor (Homo sapiens, UniProt P35348); test: Radioligand binding affinity at cloned human α1c receptor ([3H]prazosin); settings: LM(tk-) cell membranes, SEM and n
T3 construct: The entire coding region of α1C (1401 bp); expressed in transfected cells; host or cells: LM(tk-) cells, membranes; vector EXJ.RH (derived from pCEXV-3)
T3 sequence (P35348 1-466): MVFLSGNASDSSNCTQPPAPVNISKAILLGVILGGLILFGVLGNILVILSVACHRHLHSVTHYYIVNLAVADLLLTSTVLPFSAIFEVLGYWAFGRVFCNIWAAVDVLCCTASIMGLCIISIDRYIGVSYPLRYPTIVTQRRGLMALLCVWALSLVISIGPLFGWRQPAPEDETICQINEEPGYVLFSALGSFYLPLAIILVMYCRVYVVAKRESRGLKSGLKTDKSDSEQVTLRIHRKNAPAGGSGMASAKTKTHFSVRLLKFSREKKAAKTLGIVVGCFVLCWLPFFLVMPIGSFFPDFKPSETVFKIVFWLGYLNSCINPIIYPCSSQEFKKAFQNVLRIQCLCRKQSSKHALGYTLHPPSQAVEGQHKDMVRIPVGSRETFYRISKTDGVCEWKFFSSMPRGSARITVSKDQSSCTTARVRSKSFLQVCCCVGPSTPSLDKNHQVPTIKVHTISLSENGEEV
Description: as §1, §2
The construct involved ligating three partial overlapping fragments: a 5' 0.6 kb HincII genomic clone, a central 1.8 EcoRI hippocampal cDNA clone, and a 3' 0.6 Kb PstI genomic clone. The hippocampal cDNA fragment overlaps with the 5' and 3' genomic clones so that the HincII and PstI sites at the 5' and 3' ends of the cDNA clone, respectively, were utilized for ligation. This full-length clone was cloned into the KpnI site of the expression vector, using the 5' and 3' KpnI sites of the fragment, derived from vector (i.e., pBluescript) and 3'-untranslated sequences, respectively. Stable cell lines were selected as described above.
Radioligand Binding Assays: Transfected cells from culture flasks were scraped into 5 ml of 5 mM Tris-HCl, 5 mM EDTA, pH 7.5, and lysed by sonication. The cell lysates were centrifuged at 1000 rpm for 5 min at 4° C., and the supernatant was centrifuged at 30,000×g for 20 min at 4° C. The pellet was suspended in 50 mM Tris-HCl, 1 mM MgCl2, and 0.1% ascorbic acid at pH 7.5. […] Nonspecific binding was determined in the presence of 10 μM phentolamine. […]

[4] = cited from earlier work
[5] = system: benign prostatic hyperplasia (BPH); settings: literature report (phenoxybenzamine: M. Caine et al. 1976); cited from earlier work

CCC1=C(C(N)=O)C(c2ccc(F)c(F)c2)N(C(=O)NCCCN2CCC(C(=O)OC)(c3ccccc3)CC2)C(=O)N1 (single isomer, unassigned; (+)) [Example 20, (+)-5-Carboxamido-6-(3,4-difluorophenyl)-4-ethyl-1-{N-[3-(4-methoxycarbonyl-4-phenylpiperidin-1-yl)propyl]}carboxamido-2-oxo-1,2,3,6-tetrhydropyrimidine]
hα1a pKi [1]: 6.46 | hα1b pKi [2]: 6.59 | hα1c pKi [3]: 9.68

Clc1cccc(Cl)c1N=C1NCCN1 [clonidine]
side effects ([4]; background statement): dry mouth and sedation

CC(COc1ccccc1)N(CCCl)Cc1ccccc1 (stereo not shown) [phenoxybenzamine]
usefulness in treating BPH [5]: useful in relieving the symptoms of BPH | side effects ([4]; background statement): significant side effects such as dizziness and asthenia

COc1cc2nc(N3CCN(C(=O)c4ccco4)CC3)nc(N)c2cc1OC [prazosin]
usefulness in treating BPH [5]: useful for treating BPH | side effects ([4]; in vivo): untoward side effects

COc1cc2nc(N3CCN(C(=O)C4CCCO4)CC3)nc(N)c2cc1OC (stereo not shown) [terazosin]
usefulness in treating BPH [5]: useful for treating BPH | side effects ([4]; background statement): untoward side effects
